The values that follow are results of earlier work, collected in patent USRE41148E1, “Oral pulsed dose drug delivery system” (Shire Laboratories, Inc., priority 1998, dated 2010).

For data set [1] the following is noted: pulsatile capsule, release after nominal 5-hr period, majority of subjects.
The conditions of data set [2]: wax-surfactant coating level 60%.

Regarding `C[C@H](CS)C(=O)N1CCC[C@H]1C(=O)O` [captopril], the “drug observed in the blood” value in data set [1] is “no measurable amounts”.

Take `Cn1c(=O)c2[nH]cnc2n(C)c1=O` [theophylline]: in data set [2], the “lag time of drug release” value is listed as “two-hour” and the “time required for complete release after the lag time” value is “three hours”.
